The record followed here is PMC11672292, “Discovery of Balasubramide Derivative with Tissue‐Specific Anti‐Inflammatory Activity Against Acute Lung Injury by Targeting VDAC1” (Advanced Science, 2024).

One data set concerns PBMCs from ALI patients. Nature of the data set: Cytosolic mtDNA release in LPS-stimulated PBMCs from ALI patients. The data set is classed as cell-based, human. As to conditions: 10 µM. How it is done: PBMCs isolation and stimulation were performed as previously described.^[ [40], [66] ^] Anticoagulated whole blood diluted equally with PBS was added to a 15 mL sterile centrifuge tube containing lymphocyte separation solution (#C0025, Beyotime, China), and centrifuged for 10 min at 2500 rpm. The layer of PBMCs at the plasma‐density gradient medium interface was transferred to a new sterile tube, dispersed with 10 mL DMEM, and centrifuged for 5 min at 800 rpm. The mononuclear cells at the bottom of the tube were resuspended in DMEM with 10% FBS at 5 × 10^5 cells/well in 24‐well plates. After discarding the supernatant, the PBMCs were incubated with DMSO or 10 µM (+)3C‐20 for 3 h in DMEM, stimulated with 100 ng mL^−1 LPS for another 3 h, and lysed with TRIzol reagent for total RNA extraction and following indicated experiments.

For data set [1], the system named is mice. Kind of data set: Subacute toxicity, 28 consecutive days of administration. The data set is classed as in vivo.
The next data set relates to RAW264.7 cells. Nature of the data set: CCK-8 cell viability assay. It counts as cell-based, mouse. The conditions noted are these: 10 μM, 24 h. How it is done:
Cell viability was determined by CCK‐8 assay. RAW264.7 cells or mouse BMDMs cultured in a 96‐well plate were pretreated with various compounds at 10 µM or different concentrations of (+)3C‐20 for 24 h when cells reached 70% confluence and then were treated with DMEM containing 5 µL CCK‐8 reagent (A311, Vazyme, China) in a humidified atmosphere of 5% CO2 and 95% air for 1 h at 37 °C. The UV absorption values of the medium with CCK‐8 were measured at 450 nm in a ThermoFisher plate‐reader (VL0L0TD2, Waltham, USA).

A further data set deals with sepsis-induced ALI mice. Nature of the data set: Sepsis-induced acute lung injury (ALI) model (i.p. LPS). It counts as in vivo, mouse. How it is done: For sepsis‐induced ALI model, C57BL/6J mice were randomly divided into five experimental groups (n = 8–9) according to weight, including control group (PBS+Vehicle), vehicle group (LPS+Vehicle), Dexamethasone treated group (LPS+DEX at 5 mg kg^−1), (+)3C‐20 treated group (LPS+3C‐20 at 10 mg kg^−1 or 50 mg kg^−1). All mice were weighed and intraperitoneally administered DEX, (+)3C‐20 (dissolved in vehicle solution) or vehicle (5% DMSO, 20% BASF Kolliphor HS15, 75% Saline) daily for 3 consecutive days with the determined injection volume (10 mL kg^−1). After the third administration, except for the control group, mice were intraperitoneally injected with LPS (10 mg kg^−1, 10 mL kg^−1) dissolved in PBS 2 h after vehicle or compound pretreatment. […]
After mice were sacrificed, the left lung tissue fixed with 4% paraformaldehyde was embedded in paraffin, cut into 5 µm thick sections, and stained with hematoxylin and eosin. The slices were scanned with light microscopy (BX53, Olympus, Japan) to evaluate gross morphology and lung damage and inflammation, then the alveolar cells area of the image obtained was calculated with Image J 1.51 (NIH, USA), and the histopathological lung injury scores were determined as previously reported.^[ [62] ^]

In data set [2] the target is T1, VDAC1 oligomerization in LPS-primed BMDMs (Mus musculus, UniProt Q60932).
T1 construct: endogenous in cells; host or cells: primary bone marrow-derived macrophages (BMDMs) from C57BL/6J mice
Kind of data set: VDAC1 cross-linking (oligomerization) assay. As to conditions: DSS cross-linking, immunoblotting. The data set is classed as cell-based. The method, then: The cells (BMDM, iBMDM, RAW264.7, and HEK293T) treated with (+)3C‐20 were washed twice by PBS and lysed in RIPA. The lysate was incubated for 30 min at 30 °C with the cross‐linking reagent DSS (1 mM), mixed with 4 × laemmli buffer with DTT, subjected to SDS‐PAGE and immunoblotting analyzed with anti‐VDAC1 antibody.
(In general: In western blotting, separated proteins are transferred to a membrane and probed.)

Another data set has as its system BMDMs. Nature of the data set: NLRP3 inflammasome-induced pyroptosis, LDH release. It counts as cell-based, mouse. The conditions noted are these: 10 µM, LPS plus ATP, Nigericin or MSU, compared with parent compound (+)3J. The method, then:
According to previous reports,^[ [65] ^] NLRP3 inflammasome was activated in BMDMs primed with LPS (100 ng mL^−1) for 3 h, and the inflammasome was further assembled using ATP (5 mM, A6419, Sigma–Aldrich, USA) for 45 min, or Nigericin ([…], T3092, TargetMol, USA) for 1 h, or Monosodium Urate Crystal (MSU, 600 µg mL^−1, T41242, TargetMol, USA) for 6 h. To investigate the effect of compounds in NLRP3 inflammasome activation, the cells pretreated with compounds were stimulated with LPS for 3 h and followed by stimulation with ATP for another 45 min, or nigericin for another 1 h, or MSU for another 6 h to activate NLRP3 inflammasome.
Cell culture supernatants were collected and centrifuged to remove cell debris at 800 rpm for 5 min. LDH measurement was performed with an LDH cytotoxicity assay kit (C0017, Beyotime, China) according to the manufacture's instructions. Data were plotted normalizing the OD490 value of the model group as 100%.
On the technique in general: LDH in the medium is a marker of cell lysis.

The next data set concerns mouse BMDMs. Kind of data set: LPS-induced TNF-α release in BMDMs (ELISA). It counts as cell-based. The conditions noted are these: BMDM, read-out: IC50, inhibition of LPS-induced TNF-α release. How it is done: (§1) The anti‐inflammatory effects of all (+)‐balasubramide derivatives were evaluated in Lipopolysaccharide (LPS, L2630, Sigma–Aldrich, USA)‐induced macrophage inflammation model. RAW264.7 cells were pretreated with various compounds or (+)3C‐20 at different concentrations for 3 h, and then stimulated with LPS (100 ng mL^−1) for 2 h for the detection of pro‐inflammatory factors expressions. Similarly, following 3 h co‐incubation with (+)3C‐20, mouse BMDMs were stimulated with LPS (100 ng mL^−1) for 3 h. TNF‐α protein in the culture medium supernatant was measured by a commercial ELISA kit (#1 217 202, DAKEWE, China) following the manufacture's protocols.

Data set [3] has as its system LPS-stimulated RAW264.7 cells. Nature of the data set: LPS-induced TNF-α release in RAW264.7 macrophages (ELISA). It counts as cell-based, mouse. As to conditions: Mus musculus, RAW264.7 cells. How it is done:
as §1
(In general: In an ELISA, binding on a coated surface is turned into a signal by an enzyme label.)

The test system of data set [4] is mice. Kind of data set: Acute toxicity (LD50, sequential method), single intravenous injection. The conditions noted are these: i.v.
Excerpt: To test the safety of (+)3C‐20 in mice, as previously reported,^[ [31] ^] we estimated the acute toxicity of (+)3C‐20 in mice using a sequential method.

T1 sequence (Q60932 14-296): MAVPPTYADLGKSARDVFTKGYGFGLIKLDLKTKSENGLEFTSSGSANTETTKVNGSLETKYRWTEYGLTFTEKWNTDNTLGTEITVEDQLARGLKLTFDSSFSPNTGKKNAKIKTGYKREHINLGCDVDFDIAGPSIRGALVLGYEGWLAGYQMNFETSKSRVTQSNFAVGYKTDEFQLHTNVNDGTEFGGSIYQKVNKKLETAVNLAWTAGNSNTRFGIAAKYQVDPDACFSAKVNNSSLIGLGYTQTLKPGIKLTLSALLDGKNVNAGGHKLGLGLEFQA

For `O=C(CCc1ccc(C(F)(F)F)cc1)O[C@@H]1C(=O)NCCc2c([nH]c3ccccc23)[C@H]1c1ccc(C(F)(F)F)cc1` [(+)3C-20], the “cytosolic mtDNA release” value in the data set on PBMCs from ALI patients is listed as “markedly reduced”. Further, the “effects on the liver (AST, ALT)” value in the data set on mice [1] (50 mg kg^−1, 28 days) was “no harmful effects”. In the data set with mice [1] (28 consecutive days of administration, 50 mg/kg), the “changes in body weight or relative organ weight” value was “did not observe any harmful changes”. Besides, the cell viability in the data set with RAW264.7 cells came out at 103.97 ± 3.88. The “secretion of TNF-α in serum” value in the data set on sepsis-induced ALI mice (i.p. 10 or 50 mg kg^−1, 3 days pretreatment, LPS 10 mg kg^−1 i.p.) was “dose‐dependently decreased”. For the same compound, the “histopathological damage of lung (H&E)” value with sepsis-induced ALI mice (pretreated at 10 or 50 mg kg^−1, versus vehicle group) is “less histopathological damage”. Further, the VDAC1 oligomerization entry in [2] is reported as “inhibit VDAC1 oligomerization in a dose‐dependent manner”. Further, the “NLRP3 inflammasome activators-stimulated cell death (membrane blebbing, LDH release)” value in the data set on BMDMs is reported as “significantly decreased”. The IC50 (commonly the point on the concentration scale where inhibition reaches its midpoint) in the data set with mouse BMDMs worked out at 3.64 µM; in data set [3] (read-out: IC50, inhibition of LPS-induced TNF-α release), 11.8 µM. In addition, the inhibition (in general, the share of the control response that was lost under treatment) at 10 µM in data set [3] (10 μM + LPS (100 ng/mL), n = 3, read-out: Inhibition rate (%) of TNF-α release) worked out at 82 ± 3.93%. Further, the Mortality in the data set with mice [4] (dosage 141.42 mg/kg) was 0; in the data set on mice [4] (dosage 168.18 mg/kg), 20; in the data set on mice [4] (dosage 200.00 mg/kg), 83.33; in the data set with mice [4] (dosage 237.84 mg/kg) it was 100.
